According to ChEMBL document CHEMBL1121775, “Synthesis and antimalarial effects of N2-aryl-N4-[(dialkylamino)alkyl]- and N4-aryl-N2-[(dialkylamino)alkyl]-2,4-quinazolinediamines” (J Med Chem, 1981):
Several values for one entry are separate records, joined by “and”; a condition that tells them apart may be missing. Equal values may be shown once.

Legend:
Mus musculus [1] = assay: (§1) Number of toxic deaths at a dose of 640 mg/kg; format: toxicity, organism-based; parameters: dose 640 mg/kg; conditions: in vivo
Plasmodium berghei [2] = assay: Antimalarial effect against trophozoite-induced Plasmodium berghei in mice (Mus musculus) at 160 mg/kg subcutaneous dose; format: functional
[3] = The ratio of SD90 of the quinine hydrochloride, to the SD90 of the test substance for the Dose of >30 mg/kg; format: functional
Plasmodium berghei [4] = assay: Antimalarial effect against trophozoite-induced Plasmodium berghei in mice (Mus musculus) after 40 mg/kg subcutaneous dose; format: functional
Plasmodium berghei [5] = assay: Antimalarial activity against trophozoite-induced Plasmodium berghei in mice (Mus musculus); format: functional
Plasmodium berghei [6] = assay: Antimalarial effect against trophozoite-induced Plasmodium berghei in mice (Mus musculus) at 80 mg/kg subcutaneous dose; format: functional
Mus musculus [7] = assay: Number of toxic deaths at doae of 320 mg/kg; format: toxicity, organism-based; parameters: dose 320 mg/kg; conditions: in vivo
Mus musculus [8] = assay: Number of toxic deaths at dose of 640 mg/kg; format: toxicity, organism-based; parameters: dose 640 mg/kg; conditions: in vivo
Plasmodium berghei [9] = assay: (§2) Antimalarial effect against trophozoite-induced Plasmodium berghei in mice (Mus musculus) at 640 mg/kg subcutaneous dose; format: functional
Plasmodium berghei [10] = assay: Antimalarial effect against trophozoite-induced Plasmodium berghei in mice (Mus musculus) at 320 mg/kg subcutaneous dose; format: functional
Plasmodium berghei [11] = assay: as §2; format: functional; remark: listed apart in the source
Plasmodium berghei [12] = assay: Antimalarial effect against trophozoite-induced Plasmodium berghei in mice (Mus musculus) after 20 mg/kg subcutaneous dose; format: functional
Mus musculus [13] = assay: as §1; format: functional
[14] = The ratio of SD90 of the quinine hydrochloride, to the SD90 of the test substance for the Dose of 50 mg/kg; format: functional
Mus musculus [15] = assay: Number of mice cured at a dose of 640 mg/kg sc; format: functional; conditions: route subcutaneous
Mus musculus [16] = assay: Number of mice cured at a subcutaneous dose of 160 mg/kg.; format: functional
[17] = The ratio of SD90 of the quinine hydrochloride, to the SD90 of the test substance for the Dose of 0.28 mg/kg; format: functional
Mus musculus [18] = assay: Number of mice cured at a dose of 80 mg/kg sc; format: functional; conditions: route subcutaneous
Mus musculus [19] = assay: Number of mice cured at a dose of 40 mg/kg sc; format: functional; conditions: route subcutaneous
Mus musculus [20] = assay: Number of mice cured at a subcutaneous dose of 320 mg/kg.; format: functional
Mus musculus [21] = assay: Antimalarial effect against trophozoite induced Plasmodium berghei in mice (Mus musculus) at dosage of 40 mg/kg after subcutaneous administration; format: functional
Mus musculus [22] = species on record: Mus musculus; assay: Antimalarial effect against trophozoite-induced Plasmodium berghei in mice (Mus musculus); format: functional
[23] = The ratio of SD90 of the quinine hydrochloride, to the SD90 of the test substance for the Dose of 25 mg/kg; format: functional
Mus musculus [24] = assay: Antimalarial effect against trophozoite induced Plasmodium berghei in mice (Mus musculus) at dosage of 160 mg/kg after subcutaneous administration; No. of mice (Mus musculus) surviving after 60 days 1; format: functional
Plasmodium berghei [25] = assay: Antimalarial activity against trophozoite-induced Plasmodium berghei in mice (Mus musculus) at 160 mg/kg subcutaneous dose; format: functional
[26] = (§3) The ratio of SD90 of the quinine hydrochloride, to the SD90 of the test substance for the Dose of 8.5 mg/kg; format: functional
Mus musculus [27] = assay: as §3; format: functional
Mus musculus [28] = assay: Number of mice cured at a dose of 320 mg/kg sc; format: functional; conditions: route subcutaneous
Mus musculus [29] = assay: Antimalarial effect against trophozoite-induced Plasmodium berghei in mice (Mus musculus) at dosage of 80 mg/kg after subcutaneous administration; No. of mice (Mus musculus) surviving after 60 days 1; format: functional
Mus musculus [30] = assay: Antimalarial effect against trophozoite-induced Plasmodium berghei in mice (Mus musculus) at dosage of 80 mg/kg after subcutaneous administration; format: functional
[31] = The ratio of SD90 of the quinine hydrochloride, to the SD90 of the test substance for the Dose of >147 mg/kg; format: functional
Mus musculus [32] = assay: Antimalarial effect against trophozoite induced Plasmodium berghei in mice (Mus musculus) at dosage of 640 mg/kg after subcutaneous administration; No. of mice (Mus musculus) surviving after 60 days 3; format: functional
Mus musculus [33] = assay: Number of mice cured at a subcutaneous dose of 640 mg/kg.; format: functional
[34] = The ratio of SD90 of the quinine hydrochloride, to the SD90 of the test substance for the Dose of 10.5 mg/kg; format: functional
[35] = The ratio of SD90 of the quinine hydrochloride, to the SD90 of the test substance for the Dose of >37 mg/kg; format: functional

Structure (SMILES)	No. of toxic deaths (Mus musculus [1])	MST (Plasmodium berghei [4])	SD90 (Plasmodium berghei [5])	MST (Plasmodium berghei [6])	MST (Plasmodium berghei [9])	MST (Plasmodium berghei [2]; 160 mg/kg)	MST (Plasmodium berghei [10])	MST (Plasmodium berghei [11])	MST (Plasmodium berghei [4]; 40 mg/kg)	MST (Plasmodium berghei [12])	also measured
CCOc1ccc(Nc2nc(NCCN(CC)CC)c3ccc(Cl)cc3n2)cc1CN(CC)CC	5	0.6 days	>30 mg/kg/day								MST (Plasmodium berghei [2]): 0.8 days; Ratio [3]: <2.5
CCN(CC)CCCC(C)Nc1nc(Nc2ccc([N+](=O)[O-])cc2)c2ccccc2n1 (configuration not stated)				1.4 days	4.3 days	2.6 days and 3.2 days	5 days	5 days	0.8 days and 0.6 days	0 days	No. of toxic deaths (Mus musculus [7]): 2; No. of toxic deaths (Mus musculus [8]): 5
CCN(CC)CCNc1nc(Nc2ccc(N3CCN(C)CC3)cc2)nc2ccccc12	3		50 mg/kg/day	3.4 days		4.8 days and 4.2 days	5.2 days		1 days and 0.8 days	0.2 days	No. of toxic deaths (Mus musculus [13]): 3; Ratio [14]: 1.5; MST (Plasmodium berghei [11]; 640 mg/kg): 6.8 days and 6.3 days
CCc1nc(N)nc(N)c1-c1ccc(Cl)cc1 [PYRIMETHAMINE]			0.28 mg/kg/day							7.7 days	No. of survivals (Mus musculus [15]; 640 mg/kg): 1 and 2; No. of survivals (Mus musculus [16]): 5; Ratio [17]: 270; No. of survivals (Mus musculus [18]): 3; No. of survivals (Mus musculus [19]): 1; No. of survivals (Mus musculus [20]; 320 mg/kg): 2 and 3
OC1CCCN(CCCNc2nc(Nc3ccc(I)cc3)nc3ccccc23)C1 (configuration not stated)		1.2 days		4 days	24.1 days	8 days and 5.8 days	13.1 days	20.1 days		1 days	No. of survivals (Mus musculus [15]): 2; MST (Mus musculus [21]): 0.8 days; SD90 (Mus musculus [22]): 25 mg/kg/day; Ratio [23]: 3; No. of survivals (Mus musculus [20]): 1
CCN(CC)C1CCC(Nc2nc(Nc3ccc(Cl)c(Cl)c3)nc3ccccc23)CC1 (configuration not stated)			8.5 mg/kg/day				22.9 days		10.1 days and 10.5 days	0.9 days	MST (Mus musculus [24]): 13.7 days; MST (Plasmodium berghei [25]; 160 mg/kg): 13.9 days and 13.7 days; Ratio [26]: 8.8; Ratio (Mus musculus [27]): 8.8; No. of survivals (Mus musculus [16]): 1; No. of cured (Mus musculus [28]): 5; MST (Mus musculus [29]): 10.4 days; MST (Mus musculus [30]): 10.4 days
OC1CCCN(CCCNc2nc(Nc3nc(-c4ccccc4)cs3)nc3ccccc23)C1 (configuration not stated)		0.2 days	>147 mg/kg/day		0.8 days						MST (Plasmodium berghei [2]): 0.4 days; Ratio [31]: <0.5
CN1CCCC1CCNc1nc(Nc2ccc(Cl)c(Cl)c2)nc2ccccc12 (configuration not stated)		4 days	10.5 mg/kg/day	8 days		13.2 days and 13.9 days	20.8 days	29.8 days			No. of cured (Mus musculus [28]): 2; MST (Mus musculus [32]): 28.9 days; No. of cured (Mus musculus [33]): 4; MST (Plasmodium berghei [12]; 20 mg/kg): 3 days and 3.9 days; Ratio [34]: 7.1
c1ccc2c(NCCCN3CCCC3)nc(Nc3ccncc3)nc2c1	5 and 2	0.3 days	>37 mg/kg/day								MST (Plasmodium berghei [25]): 0.9 days; Ratio [35]: <2
